According to patent publication US12605462B2, “Porous silicon nanoparticle-based drug delivery system inducing reactive oxygen species and self-activation thereof, and method for preparing same” (University-Industry Cooperation Group of Kyung Hee …, priority 2021, dated 2026):

Legend:
[1] = test system: BxPC-3 cell lines; assay: In vitro cytotoxicity of nano-formulations; type: cell-based; settings: human
Description: Next, the cytotoxicity of pSiNP, JS-11, pSiNPs (JS-11), and ROSG-pSiNP (JS-11) was evaluated for BxPC-3 cell lines. The throughput of pSiNP (JS-11) and ROSG-pSiNP (JS-11) was corrected with the concentration of JS-11 (0 to 10 μM).
The cytotoxicity of two nano-formulations, pSiNP-NCS (without JS-11 and TEPITC-modifying) and pSiNP-NCS/CGKRK (SEQ ID NO: 1) (without JS-11 and CGKRK-modifying), was further analyzed to confirm the synergistic cytotoxic effect of JS-11 and TEPITC.

[2] = Conversion of JS-11 to SN-38 by ROS (emission change); type: physicochemical; settings: 37° C.; reacted only with H2O2
Description: To confirm whether JS-11 is converted to SN-38 by ROS, the change in the emission spike of JS-11 using H2O2 at 37° C. was measured. Since JS-11 has no electron push-pull capability, there is no emission in aqueous media but decomposes upon exposure to H2O2 and fluoresces at 560 nm.

[3] = test system: BxPC-3 pancreatic tumors; assay: Therapeutic efficacy in pancreatic cancer xenograft model mice; type: in vivo; settings: 20 mg/kg via tail vein on days 34, 37, 40, 43; FIG. 25
Description: BALB/c nude mice (females and males, 4 weeks and 5 weeks old) were commercially obtained from Nara Co., Ltd., Gyeonggi-do, Korea. BxPC-3 cells (5×10^6 cells, suspended in 100 μl mixture of RPMI medium and Matrigel, 1:1) were injected subcutaneously behind the flank of each mouse. All animal experiments were performed according to the guidelines of the Korea Kyunghee University Animal Care Committee (IACUC).
Tumor-bearing mice were randomly divided into 5 groups (n=5 per group). (1) PBS only, (2) pSiNP only, (3) JS-11, (4) pSiNP (JS-11), and (5) ROSG-pSiNP (JS-11) were administered by intravenous injection (i.v.) 4 times at intervals of 3 days at a dose of 20 mg/kg, 100 μl each.
The mouse tumor size was recorded every 3 days until the end of the experiment, and the tumor volume was calculated by the formula V=[(tumor length)×(tumor width)^2]/[…]. At the end of the experiment (day 22), the body of each mouse was photographed with a digital camera, and body weight was measured.
Finally, the cancer treatment efficacy of ROSG-pSiNP (JS-11) was evaluated in pancreatic cancer xenograft model mice. To induce pancreatic tumors, BxPC-3 cells were injected subcutaneously behind the flank of mice on day 0. […] Changes in tumor volume and body weight in mice were monitored, and toxic effects were investigated for practical applications.

[4] = test system: BxPC-3 cells; assay: PEITC/TEPITC-induced intracellular ROS generation (DCFDA/DCF kit, CLSM); type: cell-based, Human; settings: 20 μM, 2 hours; for fluorescence intensity-based enhancement factor (DCF, ROS level) compared with before chemical treatment: FIG. 4 (BxPC-3)
Description: The intracellular ROS levels of cells were analyzed using the 2',7'-dichlorofluorosine diacetate (DCFDA/H2DCFDA) cell ROS detection analysis kit. BxPC-3, AsPC-1, and PANC-1 cells (1×10^5 cells/mL, 100 μl/well) were inoculated into 96-well black plates and incubated at 37° C. for 24 hours. The cells were then treated with PEITC or […] at 1.25, 2.5, 5, 10, and 20 μM, respectively, and then incubated at 37° C. for 2 hours. As a positive control group, a set treated with hydrogen peroxide (H2O2) was prepared. The cells were then treated with 20 μM DCFDA (100 μl) at 37° C. for 45 minutes. Excitation/emission wavelengths at 485/535 nm were measured with a microplate reader (Fluorostar Omega, BMG Labtech, Germany). Intracellular ROS generation was assessed by CLSM (LSM800, Carl Zeiss, Oberkochen, Germany) imaging using BxPC-3 cells. BxPC-3 cells (1×10^5 cells/mL, 2 mL) were inoculated into confocal plates. After 24 hours incubation, cells were treated with 20 μM PEITC and […] for 2 hours. The cells were then stained with 20 μM DCFDA (200 μL) at 37° C. for 45 minutes, washed 3 times with PBS, and stained with DAPI for 10 minutes. After washing 3 times, the cells were fixed with 4% paraformaldehyde for 20 minutes. The excitation and emission channels are: DAPI (405 nm, 400-520 nm band filter), ROS (488 nm, 400-585 nm band filter). Cells were contacted with ITC, and intracellular ROS generation was assessed. Human pancreatic cell lines BxPC-3, AsPC-1, and PANC-1 were treated with […], and ROS levels were measured using the DCFDA/DCF kit. When 2',7'-dichlorofluorescein diacetate (DCFDA) diffuses into cells, it is deacetylated to H2DCF by cellular esterase, and when H2DCF comes into contact with ROS, it is converted to green fluorescent DCF. Phenethyl isothiocyanate (PEITC) and H2O2 were used as positive control groups. Each chemical substance ([…], and H2O2, concentration=0 to 20 μM) were treated on the cell line and incubated for 2 hours.

[5] = test system: nuclear factor erythroid 2-related factor 2 (Nrf2); assay: Nrf2 expression in BxPC-3 cells by Western blot (TEPITC/PEITC); type: cell-based, Human; settings: for time of greatest increase in Nrf2 expression after incubation / expression of Nrf2: 20 μM; for expression of Nrf2: 0 to 4 hours
Description: Oxidative stress-related signaling pathways were analyzed to confirm the association between […] treatment and intracellular ROS upregulation. PEITC was used as a positive control group. PEITC is known to induce Nrf2 accumulation in human prostate cancer PC-3 cells and increase the expression of endogenous heme oxygenase-1 (HO-1) protein. According to FIG. 7A, BxPC-3 cells were treated with […] It is noteworthy that the expression of Nrf2 in the […] treatment group was maximum 30 minutes after incubation began but decreased from 1 hour later.

[6] = test system: Nrf2; assay: Nrf2 immunofluorescence / nuclear translocation (CLSM); type: cell-based, Human; settings: 30 minutes, BxPC-3
Description: CLSM imaging was used to verify that […] induces nuclear translocation of cytoplasmic Nrf2. BxPC-3 cells were treated with […] (0 to 10 μM), incubated for 30 minutes, and visualized by treatment with Nrf2 antibody and DAPI.

[7] = test system: BxPC-3 cells; assay: Cytotoxicity of isothiocyanates (CCK-8 assay); type: cell-based, Human; settings: 10 μM, 24 hours
Description: Next, the cytotoxicity of TEPITC was analyzed. BxPC-3 cells were treated with 0 to 10 μM of TEPITC or PEITC and incubated for 24 hours, and cytotoxicity and viability were analyzed by CCK-8 assay.

[8] = test system: heme oxygenase-1 (HO-1); assay: HO-1 expression in BxPC-3 cells by Western blot; type: cell-based, Human; settings: 5 μM, 0 to 6 hours
Description: The expression level of HO-1, an antioxidant enzyme essential for cell protection against oxidative stress, was also analyzed. Cells were treated with […] (5 μM) and incubated for 0 to 6 hours. […] This is thought to be because Nrf2 is a transcription factor that regulates the expression of HO-1.

| Structure (SMILES) | cytotoxicity ([1]; 0.625 μM) [%] | cytotoxicity ([1]; 10 μM) [%] | conversion to SN-38 under pH 3 to 10, metal ions and biomolecules [2] | mean tumor volume [3] [mm^3] | fluorescence intensity-based enhancement factor (DCF, ROS level) compared with before chemical treatment [4] [times] | time of greatest increase in Nrf2 expression after incubation [5] [min] | expression of Nrf2 [5] | intracellular ROS level (fluorescence analysis and CLSM images) ([4]; BxPC-3) | Nrf2 immunofluorescence localisation ([6]; 2.5 μM) | Nrf2 immunofluorescence localisation ([6]; 5 μM) | Nrf2 immunofluorescence localisation ([6]; 10 μM) | cytotoxicity compared to the untreated group cells [7] | increase in Nrf2 level, concentration dependence ([5]; 0 to 20 μM) | expression level of intracellular HO-1 [8] | time of highest HO-1 expression [8] |
| --- | --- | --- | --- | --- | --- | --- | --- | --- | --- | --- | --- | --- | --- | --- | --- |
| CCc1c2c(nc3ccc(OC(=O)c4ccccc4Nc4cccc(C)c4C)cc13)-c1cc3c(c(=O)n1C2)COC(=O)[C@]3(O)CC [JS-11] | 21.60 | 42.4 | did not show the conversion to SN-38 | 183.1±40.8 | – | – | – | – | – | – | – | – | – | – | – |
| S=C=NCCc1ccccc1 [PEITC, Phenethyl isothiocyanate, reference compound] | – | – | – | – | 3.67 | 30 | significantly increased | – | – | – | – | – | – | – | – |
| CCO[Si](CCCN=C=S)(OCC)OCC [TEPITC, 3-isothiocyanatopropyltriethoxysilane] | – | – | – | – | 6.34 | 30 | significantly increased | upregulates the intracellular ROS level, and the effect was superior to PEITC | increase in Nrf2 expression in the cytoplasm | in the nucleus Nrf2 expression was observed | Nrf2 signal in the nucleus was weakened | up to 80% | concentration-dependent in the range of 2.5 to 10 μM | significantly increased | 2 h and 4 h |
